Results reported in ChEMBL document CHEMBL3351764, “Design, synthesis and biological activity of flavonoid derivatives as selective agonists for neuromedin U 2 receptor” (Bioorg Med Chem, 2014).
Activity calls are given as the source filed them.

Key:
[1] = molecular target: T1, Adenosine receptor A3 (Homo sapiens) (UniProt P0DMS8); assay: Agonist activity at human A3 receptor at 100 uM to 5 mM
T1 sequence (whole entry): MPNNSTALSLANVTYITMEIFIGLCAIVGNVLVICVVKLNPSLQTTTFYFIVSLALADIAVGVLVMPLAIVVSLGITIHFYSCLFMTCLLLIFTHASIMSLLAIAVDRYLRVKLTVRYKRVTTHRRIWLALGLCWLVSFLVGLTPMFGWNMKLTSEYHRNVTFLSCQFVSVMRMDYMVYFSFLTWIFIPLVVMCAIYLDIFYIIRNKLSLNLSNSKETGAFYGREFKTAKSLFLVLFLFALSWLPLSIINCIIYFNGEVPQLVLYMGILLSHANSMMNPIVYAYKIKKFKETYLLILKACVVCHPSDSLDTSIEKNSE

[2] = molecular target: Glucagon receptor (Homo sapiens) (UniProt P47871); assay: Agonist activity at human Glu receptor at 100 uM to 5 mM
Chain of Glucagon receptor (Homo sapiens) (P47871 whole entry): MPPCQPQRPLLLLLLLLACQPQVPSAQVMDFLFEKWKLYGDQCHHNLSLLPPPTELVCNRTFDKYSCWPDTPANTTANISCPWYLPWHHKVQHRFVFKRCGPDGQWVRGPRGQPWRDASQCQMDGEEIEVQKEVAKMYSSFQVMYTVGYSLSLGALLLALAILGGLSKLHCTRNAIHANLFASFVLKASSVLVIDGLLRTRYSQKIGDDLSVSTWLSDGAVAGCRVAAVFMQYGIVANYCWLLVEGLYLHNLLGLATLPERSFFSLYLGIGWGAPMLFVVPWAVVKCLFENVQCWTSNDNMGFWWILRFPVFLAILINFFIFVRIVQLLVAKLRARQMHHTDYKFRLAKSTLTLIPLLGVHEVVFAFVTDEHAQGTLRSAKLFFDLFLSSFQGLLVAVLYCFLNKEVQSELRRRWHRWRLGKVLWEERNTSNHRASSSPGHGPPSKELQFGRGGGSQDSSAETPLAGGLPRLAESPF

[3] = molecular target: T2, Orexin receptor type 2 (Homo sapiens) (UniProt O43614); assay: Agonist activity at human orexin 2 receptor at 100 uM to 5 mM
T2 sequence (whole entry): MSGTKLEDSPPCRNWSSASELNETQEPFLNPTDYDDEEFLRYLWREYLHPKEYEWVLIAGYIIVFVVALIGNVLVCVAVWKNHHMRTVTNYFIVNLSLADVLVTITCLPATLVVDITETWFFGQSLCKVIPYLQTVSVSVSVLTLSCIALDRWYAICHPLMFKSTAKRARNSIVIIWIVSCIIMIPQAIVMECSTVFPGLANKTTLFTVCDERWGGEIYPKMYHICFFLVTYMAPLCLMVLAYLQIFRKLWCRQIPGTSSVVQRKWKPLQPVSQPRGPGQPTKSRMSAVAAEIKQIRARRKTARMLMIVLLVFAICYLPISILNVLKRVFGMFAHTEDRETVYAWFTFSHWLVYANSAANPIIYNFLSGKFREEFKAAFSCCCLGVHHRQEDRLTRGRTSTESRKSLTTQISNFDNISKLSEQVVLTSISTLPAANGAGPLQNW

[4] = molecular target: T3, Neuromedin-U receptor 1 (Homo sapiens) (UniProt Q9HB89); assay: Agonist activity at human NMU1 receptor at 100 uM to 5 mM
T3 sequence (whole entry): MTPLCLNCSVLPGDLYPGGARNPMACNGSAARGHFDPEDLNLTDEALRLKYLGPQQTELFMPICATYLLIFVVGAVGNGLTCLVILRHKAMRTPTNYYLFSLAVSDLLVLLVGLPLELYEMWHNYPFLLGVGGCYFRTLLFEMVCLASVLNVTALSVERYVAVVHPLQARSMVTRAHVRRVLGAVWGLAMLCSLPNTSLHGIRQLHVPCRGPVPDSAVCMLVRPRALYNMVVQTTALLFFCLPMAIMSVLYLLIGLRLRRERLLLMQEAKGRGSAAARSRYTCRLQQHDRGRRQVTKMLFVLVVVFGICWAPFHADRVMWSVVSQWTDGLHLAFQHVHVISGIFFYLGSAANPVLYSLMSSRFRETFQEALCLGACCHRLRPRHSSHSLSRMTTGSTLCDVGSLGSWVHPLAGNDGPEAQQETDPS

[5] = molecular target: D(1B) dopamine receptor (Homo sapiens) (UniProt P21918); assay: Agonist activity at human D5 receptor at 100 uM to 5 mM
Chain of D(1B) dopamine receptor (Homo sapiens) (P21918 whole entry): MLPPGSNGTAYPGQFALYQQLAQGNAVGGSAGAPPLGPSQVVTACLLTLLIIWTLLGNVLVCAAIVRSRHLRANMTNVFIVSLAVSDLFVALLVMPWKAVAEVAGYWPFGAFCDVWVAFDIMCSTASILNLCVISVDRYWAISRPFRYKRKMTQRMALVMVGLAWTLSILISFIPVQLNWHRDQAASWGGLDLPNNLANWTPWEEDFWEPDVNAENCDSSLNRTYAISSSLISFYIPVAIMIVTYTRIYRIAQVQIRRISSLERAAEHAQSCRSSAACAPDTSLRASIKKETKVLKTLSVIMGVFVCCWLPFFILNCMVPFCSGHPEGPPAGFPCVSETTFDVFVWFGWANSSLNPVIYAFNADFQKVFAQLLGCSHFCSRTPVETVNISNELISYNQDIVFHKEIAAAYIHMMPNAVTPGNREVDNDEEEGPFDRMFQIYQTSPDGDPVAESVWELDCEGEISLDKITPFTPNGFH

[6] = molecular target: Melanocyte-stimulating hormone receptor (Homo sapiens) (UniProt Q01726); assay: Agonist activity at human MC1 receptor at 100 uM to 5 mM
Chain of Melanocyte-stimulating hormone receptor (Homo sapiens) (Q01726 whole entry, looked up): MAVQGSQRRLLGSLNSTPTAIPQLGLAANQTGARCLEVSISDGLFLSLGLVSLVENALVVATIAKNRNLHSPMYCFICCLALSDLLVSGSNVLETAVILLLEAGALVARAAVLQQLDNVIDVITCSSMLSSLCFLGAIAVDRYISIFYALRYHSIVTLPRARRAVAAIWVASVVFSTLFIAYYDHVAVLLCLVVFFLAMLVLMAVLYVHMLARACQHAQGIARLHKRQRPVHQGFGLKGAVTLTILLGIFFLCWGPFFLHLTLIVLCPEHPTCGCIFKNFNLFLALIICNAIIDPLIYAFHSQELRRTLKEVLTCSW

[7] = molecular target: Adenosine receptor A2a (Homo sapiens) (UniProt P29274); assay: Agonist activity at human A2a receptor at 100 uM to 5 mM
Chain of Adenosine receptor A2a (Homo sapiens) (P29274 whole entry): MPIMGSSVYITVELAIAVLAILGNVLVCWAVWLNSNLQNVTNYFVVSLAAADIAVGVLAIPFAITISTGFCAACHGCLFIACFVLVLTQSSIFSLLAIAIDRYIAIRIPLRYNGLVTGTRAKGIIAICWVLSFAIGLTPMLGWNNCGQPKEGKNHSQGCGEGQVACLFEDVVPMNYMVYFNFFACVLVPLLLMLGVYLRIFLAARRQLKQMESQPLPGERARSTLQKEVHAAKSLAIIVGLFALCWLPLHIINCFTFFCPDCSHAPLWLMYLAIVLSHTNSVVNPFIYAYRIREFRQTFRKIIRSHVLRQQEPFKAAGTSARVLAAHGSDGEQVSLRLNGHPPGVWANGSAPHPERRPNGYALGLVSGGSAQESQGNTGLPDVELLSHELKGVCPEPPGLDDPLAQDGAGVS

[8] = molecular target: T4, Muscarinic acetylcholine receptor M1 (Homo sapiens) (UniProt P11229); assay: Agonist activity at human M1 receptor at 100 uM to 5 mM
T4 sequence (whole entry): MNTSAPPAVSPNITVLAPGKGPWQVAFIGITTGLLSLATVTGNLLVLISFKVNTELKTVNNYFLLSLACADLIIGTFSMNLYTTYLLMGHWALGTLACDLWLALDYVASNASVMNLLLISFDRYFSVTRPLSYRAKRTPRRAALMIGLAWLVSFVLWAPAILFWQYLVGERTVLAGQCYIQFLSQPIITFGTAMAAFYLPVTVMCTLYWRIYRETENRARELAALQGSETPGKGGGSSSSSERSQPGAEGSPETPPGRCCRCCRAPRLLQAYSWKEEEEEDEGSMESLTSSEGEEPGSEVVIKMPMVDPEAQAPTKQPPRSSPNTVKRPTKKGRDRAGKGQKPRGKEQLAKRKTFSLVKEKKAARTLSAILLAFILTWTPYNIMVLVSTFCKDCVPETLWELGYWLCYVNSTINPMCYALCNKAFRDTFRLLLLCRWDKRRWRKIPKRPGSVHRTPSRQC

[9] = molecular target: Melanocortin receptor 4 (Mus musculus) (UniProt P56450); assay: Agonist activity at mouse MC4 receptor at 100 uM to 5 mM
Chain of Melanocortin receptor 4 (Mus musculus) (P56450 whole entry): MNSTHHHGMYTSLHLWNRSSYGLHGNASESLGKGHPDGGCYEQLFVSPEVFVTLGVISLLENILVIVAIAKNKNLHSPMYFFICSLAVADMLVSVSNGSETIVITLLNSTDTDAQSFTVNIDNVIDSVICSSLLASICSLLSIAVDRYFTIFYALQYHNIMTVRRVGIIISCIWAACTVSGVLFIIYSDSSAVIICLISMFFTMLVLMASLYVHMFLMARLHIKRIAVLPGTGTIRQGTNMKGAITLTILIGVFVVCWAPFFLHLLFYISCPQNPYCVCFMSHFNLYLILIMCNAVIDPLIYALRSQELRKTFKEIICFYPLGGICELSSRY

[10] = molecular target: Melanocortin receptor 4 (Homo sapiens) (UniProt P32245); assay: Agonist activity at human MC4 receptor at 100 uM to 5 mM
Chain of Melanocortin receptor 4 (Homo sapiens) (P32245 whole entry): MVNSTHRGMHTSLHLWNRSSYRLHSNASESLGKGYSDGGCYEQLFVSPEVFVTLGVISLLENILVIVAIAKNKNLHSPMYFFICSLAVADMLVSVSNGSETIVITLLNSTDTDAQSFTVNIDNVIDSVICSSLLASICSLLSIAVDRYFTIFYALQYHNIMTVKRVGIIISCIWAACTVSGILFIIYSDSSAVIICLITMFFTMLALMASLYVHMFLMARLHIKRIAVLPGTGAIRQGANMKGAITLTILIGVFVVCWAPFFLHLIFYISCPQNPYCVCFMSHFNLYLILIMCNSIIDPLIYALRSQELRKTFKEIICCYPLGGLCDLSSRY

[11] = molecular target: T5, 5-hydroxytryptamine receptor 2C (Homo sapiens) (UniProt P28335); assay: Agonist activity at human 5HT2C receptor at 100 uM to 5 mM
T5 sequence (whole entry): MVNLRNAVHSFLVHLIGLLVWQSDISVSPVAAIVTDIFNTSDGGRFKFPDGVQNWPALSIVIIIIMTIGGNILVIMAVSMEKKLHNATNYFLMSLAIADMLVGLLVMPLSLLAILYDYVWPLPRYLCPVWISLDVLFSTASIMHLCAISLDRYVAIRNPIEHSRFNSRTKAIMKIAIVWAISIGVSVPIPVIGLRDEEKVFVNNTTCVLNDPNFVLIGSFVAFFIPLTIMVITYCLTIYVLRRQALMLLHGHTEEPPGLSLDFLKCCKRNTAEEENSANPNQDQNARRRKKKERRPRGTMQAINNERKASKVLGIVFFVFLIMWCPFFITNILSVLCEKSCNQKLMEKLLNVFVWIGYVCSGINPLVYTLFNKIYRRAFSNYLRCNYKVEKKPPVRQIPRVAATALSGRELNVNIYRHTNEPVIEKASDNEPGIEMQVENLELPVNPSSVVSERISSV

Measured: Activity

CN(C)c1ccc(C2C=Cc3ccccc3O2)cc1 (racemic)
inactive: all assays above

O=c1c(O)c(-c2cc(Br)ccc2F)oc2ccccc12
inactive: all assays above

COc1cc(-c2oc3ccccc3c(=O)c2O)ccc1O
inactive: all assays above

COc1ccc(-c2oc3ccccc3c(=O)c2O)cc1O
inactive: all assays above

O=c1cc(-c2ccc(Cl)cc2Cl)oc2ccccc12
inactive: all assays above

COc1c(-c2cc(Br)ccc2F)oc2ccccc2c1=O
inactive: all assays above

O=c1c(O)c(-c2cccc(Cl)c2F)oc2ccccc12
inactive: all assays above

O=c1c(O)c(-c2ccc(O)c(O)c2)oc2ccccc12
inactive: all assays above

COc1ccc(C2C=Cc3ccccc3O2)cc1O (racemic)
inactive: all assays above

Clc1ccc(C2C=Cc3ccccc3O2)c(Cl)c1 (racemic)
inactive: all assays above

O=c1c(O)c(-c2ccccc2F)oc2ccccc12
inactive: all assays above
